{
  "source": "paper PMC6254361",
  "about": "“The properties of Msh2–Msh6 ATP binding mutants suggest a signal amplification mechanism in DNA mismatch repair” (The Journal of Biological Chemistry, 2018)",
  "biological_target": "T1, Msh2–Msh6 (Saccharomyces cerevisiae, UniProt P25847+Q03834)",
  "T1 sequence (P25847 1-964)": "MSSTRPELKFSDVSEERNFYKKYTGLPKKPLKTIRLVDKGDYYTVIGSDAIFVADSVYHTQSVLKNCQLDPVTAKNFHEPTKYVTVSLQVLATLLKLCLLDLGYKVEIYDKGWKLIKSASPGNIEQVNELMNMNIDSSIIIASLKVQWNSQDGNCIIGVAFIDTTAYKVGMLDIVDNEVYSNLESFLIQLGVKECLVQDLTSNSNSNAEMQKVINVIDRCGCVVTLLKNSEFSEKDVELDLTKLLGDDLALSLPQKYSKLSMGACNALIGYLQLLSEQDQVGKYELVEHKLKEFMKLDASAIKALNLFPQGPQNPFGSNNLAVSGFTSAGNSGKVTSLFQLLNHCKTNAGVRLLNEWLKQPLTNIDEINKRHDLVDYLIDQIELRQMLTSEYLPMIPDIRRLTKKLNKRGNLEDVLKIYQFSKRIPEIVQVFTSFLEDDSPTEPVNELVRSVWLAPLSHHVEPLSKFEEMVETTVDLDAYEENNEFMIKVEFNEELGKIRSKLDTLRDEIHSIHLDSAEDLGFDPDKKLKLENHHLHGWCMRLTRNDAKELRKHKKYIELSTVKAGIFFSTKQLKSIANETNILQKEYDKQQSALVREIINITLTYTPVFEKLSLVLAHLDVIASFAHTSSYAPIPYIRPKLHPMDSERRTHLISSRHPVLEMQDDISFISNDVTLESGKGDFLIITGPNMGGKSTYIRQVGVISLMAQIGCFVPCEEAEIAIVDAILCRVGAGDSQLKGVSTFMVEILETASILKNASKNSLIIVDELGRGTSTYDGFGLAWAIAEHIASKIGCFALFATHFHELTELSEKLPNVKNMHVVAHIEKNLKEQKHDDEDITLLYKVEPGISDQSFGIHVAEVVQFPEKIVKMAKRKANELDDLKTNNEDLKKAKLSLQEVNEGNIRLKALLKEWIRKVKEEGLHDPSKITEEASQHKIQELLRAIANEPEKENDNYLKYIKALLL",
  "T1 sequence (Q03834 1-1242)": "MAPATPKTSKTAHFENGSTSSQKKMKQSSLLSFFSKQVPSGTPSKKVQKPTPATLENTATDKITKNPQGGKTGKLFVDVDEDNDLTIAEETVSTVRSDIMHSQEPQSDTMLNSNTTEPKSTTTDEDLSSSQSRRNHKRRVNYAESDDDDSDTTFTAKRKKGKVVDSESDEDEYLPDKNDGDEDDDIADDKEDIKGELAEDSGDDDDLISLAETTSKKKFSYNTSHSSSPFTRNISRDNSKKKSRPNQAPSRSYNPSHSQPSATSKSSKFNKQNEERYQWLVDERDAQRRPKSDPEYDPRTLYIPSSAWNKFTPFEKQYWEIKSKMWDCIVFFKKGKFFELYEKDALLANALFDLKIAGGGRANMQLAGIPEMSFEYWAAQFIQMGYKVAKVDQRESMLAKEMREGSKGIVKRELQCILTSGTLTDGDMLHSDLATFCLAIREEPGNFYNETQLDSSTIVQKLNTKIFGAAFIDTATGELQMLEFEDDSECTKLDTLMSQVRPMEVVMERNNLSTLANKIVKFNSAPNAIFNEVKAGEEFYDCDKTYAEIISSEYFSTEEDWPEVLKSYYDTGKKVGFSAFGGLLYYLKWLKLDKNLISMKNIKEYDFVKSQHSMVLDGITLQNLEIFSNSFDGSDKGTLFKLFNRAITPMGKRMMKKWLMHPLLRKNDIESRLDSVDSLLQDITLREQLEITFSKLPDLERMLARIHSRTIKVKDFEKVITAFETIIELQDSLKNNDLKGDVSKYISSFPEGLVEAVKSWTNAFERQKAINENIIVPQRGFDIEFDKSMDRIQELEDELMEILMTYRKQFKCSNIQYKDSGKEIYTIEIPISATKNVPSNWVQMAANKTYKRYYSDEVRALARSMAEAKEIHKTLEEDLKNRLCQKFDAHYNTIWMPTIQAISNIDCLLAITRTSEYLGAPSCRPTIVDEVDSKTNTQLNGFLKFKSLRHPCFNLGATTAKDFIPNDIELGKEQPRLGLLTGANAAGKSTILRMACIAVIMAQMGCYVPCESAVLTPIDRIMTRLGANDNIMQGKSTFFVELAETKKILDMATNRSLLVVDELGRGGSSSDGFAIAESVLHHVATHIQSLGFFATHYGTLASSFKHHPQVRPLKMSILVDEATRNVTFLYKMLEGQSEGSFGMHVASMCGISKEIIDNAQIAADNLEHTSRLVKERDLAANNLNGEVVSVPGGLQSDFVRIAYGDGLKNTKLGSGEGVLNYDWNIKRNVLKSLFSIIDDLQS",
  "assay": "UV cross-linking of [γ-32P]ATP, SDS-PAGE, phosphorimaging",
  "type": "binding",
  "settings": "labelled compound; reference complex; no Mg2+, EDTA, pH 8, on ice; Msh2 site at 60 μM ATP, Msh6 site at 1 μM ATP",
  "data": [
    {"smiles": "Nc1ncnc2c1ncn2[C@@H]1O[C@H](COP(=O)(O)OP(=O)(O)OP(=O)(O)O)[C@@H](O)[C@H]1O", "note": "[ATP]", "values": [
      {"measurement": "UV cross-linking of [γ-32P]ATP, SDS-PAGE, phosphorimaging", "value": "ATP binding at these concentrations was compared with WT Msh2–Msh6"}
    ]}
  ]
}
